Data on 7 molecules can be found in ChEMBL document CHEMBL1201862, “PubChem BioAssay data set” (2004).

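In this assay, cells in 96-well plates receive the compound at five concentrations for 48 hours. Endpoints are linearly interpolated between the surrounding concentrations. GI50 marks 50% less growth.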 Calls of active or inactive are those of the source. Cut-off read from the data, not from the text of the source: active = GI50 up to about 1.1 µM and inactive = higher. Bridge positions count the residues as written; N and C are the ends. Square brackets hold non-standard residues; d marks the D form. Peptide text beside a SMILES is read from it. I, II: the chains in the order shown. * marks the point of attachment. Quinoxaline2carbonyl = O=C(c1cnc2ccccc2n1)*; NMeV = CN[CH](C(=O)O)C(C)C; NMeC = CN[CH](CS)C(=O)O

Among the test systems are A549; MDA-N; MCF7; LOX IMVI; UO-31; HL-60; KM12; NCI/ADR-RES; UACC-257; TK-10; SF-295; CAKI-1; 786-0; OVCAR-8; BT-549; NCI-H226; T47D; EKVX; HOP-62.
Common to all, as to assay: growth of human tumour cells (NCI), 48 h

Consider `Cc1nc2ccccc2nc1-c1ccc(/N=[N+](\[O-])c2ccc(-c3nc4ccccc4nc3C)cc2)cc1`, for which the GI50 is > 100 µM (inactive) with A549; > 100 µM (inactive) in the assay with MDA-N; > 100 µM (inactive) in the assay with MCF7; > 100 µM (inactive) in the assay with LOX IMVI; > 81.3 µM (inactive) with UO-31; > 100 µM (inactive) with HL-60. Moreover, the GI50 with KM12 was > 100 µM (inactive); in the assay on NCI/ADR-RES it was > 64.9 µM (inactive); in the assay with UACC-257, > 100 µM (inactive); with TK-10, 20.1 µM (inactive); in the assay on SF-295 it was 59.6 µM (inactive); in the assay on CAKI-1 it was > 100 µM (inactive). Moreover, the GI50 is 45.5 µM (inactive) in the assay on 786-0; 50.1 µM (inactive) in the assay with OVCAR-8; > 85.9 µM (inactive) with BT-549; > 74.8 µM (inactive) with NCI-H226; > 100 µM (inactive) in the assay with T47D; > 100 µM (inactive) in the assay with EKVX. The GI50 in the assay with HOP-62 was 23.9 µM (inactive).
As for `CC(=O)OCCOCCN1CCN(C2=C(Cl)C(=O)c3c(O)ccc(O)c3C2=O)CC1`, the GI50 in the assay on A549 is 2.1 µM (inactive); with MDA-N it was 0.497 µM (active); in the assay with MCF7, 0.302 µM (active); in the assay with LOX IMVI, 0.423 µM (active); in the assay on UO-31, 1.22 µM (inactive); in the assay on HL-60, 0.0394 µM (active). The GI50 in the assay with KM12 was 2.15 µM (inactive); with NCI/ADR-RES, 0.296 µM (active); with UACC-257, 1.02 µM (active); with TK-10, 0.46 µM (active); in the assay with SF-295, 1.93 µM (inactive); in the assay on CAKI-1 it was 0.339 µM (active). Moreover, the GI50 is 0.326 µM (active) in the assay on 786-0; 0.685 µM (active) in the assay on OVCAR-8; 0.776 µM (active) in the assay on BT-549; 2.89 µM (inactive) with NCI-H226; 0.652 µM (active) in the assay with T47D; 1.67 µM (inactive) in the assay on EKVX. Moreover, the GI50 with HOP-62 is 3.04 µM (inactive).
With `Oc1c(Br)cc(CN(Cc2cc(Br)c(O)c(Br)c2)C2CCCCC2)cc1Br`, the GI50 with A549, in the assay with MDA-N, in the assay with MCF7, with LOX IMVI, in the assay with UO-31 and in the assay with HL-60 was > 100 µM (inactive) in each case. The GI50 with KM12, with NCI/ADR-RES, with UACC-257, with TK-10, in the assay on SF-295 and in the assay with CAKI-1 was > 100 µM (inactive) in each case. The GI50 with 786-0, in the assay on OVCAR-8, with BT-549, with NCI-H226, in the assay with T47D and in the assay on EKVX was > 100 µM (inactive) each time. The GI50 in the assay with HOP-62 is > 100 µM (inactive).
Regarding `Cc1cnc2nc(-c3ccc(Cl)cc3)cc(O)c2c1`, the GI50 is 5.05 µM (inactive) in the assay on A549; 0.959 µM (active) in the assay with MDA-N; 4.48 µM (inactive) in the assay on MCF7; 4.63 µM (inactive) with LOX IMVI; 8.59 µM (inactive) in the assay with UO-31; 1.87 µM (inactive) in the assay with HL-60. Moreover, the GI50 with KM12 is 3.76 µM (inactive); in the assay on NCI/ADR-RES it was 6.1 µM (inactive); in the assay with UACC-257, 11.5 µM (inactive); with TK-10 it was 43.2 µM (inactive); in the assay on SF-295, 3.55 µM (inactive); in the assay on CAKI-1, 5.33 µM (inactive). Also, the GI50 with 786-0 is 6.17 µM (inactive); in the assay on OVCAR-8, 9.14 µM (inactive); in the assay with BT-549, 9.95 µM (inactive); in the assay with NCI-H226, 13.2 µM (inactive); in the assay on T47D, 43 µM (inactive); in the assay with EKVX it was 18.5 µM (inactive). Also, the GI50 in the assay with HOP-62 was 5.86 µM (inactive).
As for `C=CC/N=C(\S)Nc1sc2c(c1C(=O)OCC)CC(C)CC2` (stereo not drawn), the GI50 in the assay with A549 is 24.8 µM (inactive); with MDA-N, 30.5 µM (inactive); with MCF7 it was 20.2 µM (inactive); with LOX IMVI it was 32.9 µM (inactive); in the assay with UO-31 it was 23.7 µM (inactive); in the assay with HL-60, 0.849 µM (active). In addition, the GI50 was 34.8 µM (inactive) in the assay with KM12; 31.1 µM (inactive) in the assay on NCI/ADR-RES; 20.8 µM (inactive) with UACC-257; 26.3 µM (inactive) in the assay with TK-10; 21.1 µM (inactive) with SF-295; 36.1 µM (inactive) with CAKI-1. For the same molecule, the GI50 is 33.9 µM (inactive) in the assay on 786-0; 36.7 µM (inactive) with OVCAR-8; 35.6 µM (inactive) with BT-549; 21.6 µM (inactive) with NCI-H226; 21.4 µM (inactive) in the assay on T47D; 28.1 µM (inactive) in the assay with EKVX. In addition, the GI50 in the assay with HOP-62 is 23.1 µM (inactive).
On to `O=C(O)/C=C/C(=O)Nc1nc[nH]n1`, for which the GI50 in the assay with A549 is > 100 µM (inactive); in the assay with MDA-N it was > 100 µM (inactive); in the assay on MCF7, > 100 µM (inactive); in the assay with LOX IMVI, > 100 µM (inactive); in the assay with UO-31 it was > 100 µM (inactive); in the assay on HL-60, 0.034 µM (active). Also, the GI50 with KM12, in the assay with NCI/ADR-RES, in the assay on UACC-257, with TK-10, in the assay on SF-295 and in the assay on CAKI-1 was > 100 µM (inactive) each time. The GI50 in the assay on 786-0, with OVCAR-8, in the assay on BT-549, in the assay on NCI-H226, in the assay with T47D and in the assay on EKVX was > 100 µM (inactive) in each case. Also, in the assay on HOP-62, the GI50 was > 100 µM (inactive).
Take `CC1NC(=O)C(NC(=O)c2cnc3ccccc3n2)COC(=O)C(C(C)C)N(C)C(=O)C2CSSCC(C(=O)N(C)C(C(C)C)C(=O)OCC(NC(=O)c3cnc4ccccc4n3)C(=O)NC(C)C(=O)N2C)N(C)C1=O` (stereo not drawn) (I: Quinoxaline2carbonyl-SA[NMeC][NMeV] / II: Quinoxaline2carbonyl-SA[NMeC][NMeV]; ester I:1-II:C, I:C-II:1; disulfide I:3-II:3; configuration not given here): the GI50 in the assay on A549, in the assay on MDA-N, in the assay on MCF7, with LOX IMVI, in the assay on UO-31 and in the assay on HL-60 was < 0.01 µM (active) each time. The GI50 in the assay with KM12, in the assay on NCI/ADR-RES, in the assay on UACC-257, in the assay on TK-10, in the assay with SF-295 and with CAKI-1 was < 0.01 µM (active) each time. The GI50 in the assay on 786-0, with OVCAR-8, in the assay with BT-549, in the assay on NCI-H226, with T47D and in the assay with EKVX was < 0.01 µM (active) throughout. Moreover, the GI50 with HOP-62 is < 0.01 µM (active).
